Assays:
[1] = test system: tissues at the target site; experiment: drug absorption by tissue after 0.2-2 minute deployment of coated balloon; type: in vivo; conditions: coating with paclitaxel, after 0.2-2 minutes of deployment
[2] = octanol/water; cited from earlier work
[3] = BSA added; cited from earlier work
[4] = stability of additive with paclitaxel under ethylene oxide sterilization, heating and aging; conditions: reacted with paclitaxel
Serum albumin = conditions: cited from earlier work

O=C1O[C@H](CO)[C@@H](O)[C@H](O)[C@H]1O [gluconolactone]
drug absorption by tissue [1]: unexpectedly high

O=C1O[C@H](CO)[C@@H](O)[C@H]1O [ribonic acid lactone]
drug absorption by tissue [1]: unexpectedly high

COc1ccc(O)c(C(C)(C)C)c1 [Butylated hydroxyanisole]
log P [2]: 1.31

OC[C@@H](O)[C@@H](O)[C@H](O)[C@@H](O)CO [sorbitol]
log P [2]: −4.67

PEG-20 sorbitan monolaurate [Tween 20]
log P [2]: about 3.0

CC(=O)O[C@H]1C(=O)[C@@]2(C)[C@H]([C@H](OC(=O)c3ccccc3)[C@]3(O)C[C@H](OC(=O)[C@H](O)[C@@H](NC(=O)c4ccccc4)c4ccccc4)C(C)=C1C3(C)C)[C@]1(OC(C)=O)CO[C@@H]1C[C@@H]2O [paclitaxel]
increase of solubility in PBS with the addition of BSA [3]: over 20 fold

O=C(O)c1ccccc1 [benzoic acid]
stability under ethylene oxide sterilization, heating, and aging process [4]: not stable

CO[C@H]1C[C@@H]2CC[C@@H](C)[C@@](O)(O2)C(=O)C(=O)N2CCCC[C@H]2C(=O)O[C@H]([C@H](C)C[C@@H]2CC[C@@H](O)[C@H](OC)C2)CC(=O)[C@H](C)/C=C(\C)[C@@H](O)[C@@H](OC)C(=O)[C@H](C)C[C@H](C)/C=C/C=C/C=C/1C [rapamycin]
protein bound (Serum albumin): 92%
share of protein binding that is to albumin (Serum albumin; primarily to albumin): 97%
